Source: patent publication US4327097A, “Novel penicillins” (Toyama Chemical Co., Ltd., priority 1974, dated 1982)
≈ marks a conversion by molar mass, not a printed value.

Columns and labels:
Assay type in all cases: cell-based
Proteus mirabilis = test: MIC against clinical isolates; conditions: Table 6-5, clinical isolate; unit assumed
Proteus rettgeri = test: MIC against clinical isolates; conditions: Table 6-5, clinical isolate; unit assumed
Escherichia coli = test: MIC against clinical isolates; conditions: Table 6-2, clinical isolate; unit assumed
Klebsiella pneumoniae [1] = test: MIC against clinical isolates; conditions: Table 6-4, clinical isolate; unit assumed
Proteus vulgaris = test: MIC against clinical isolates; conditions: Table 6-5, clinical isolate; unit assumed
Proteus morganii = test: MIC against clinical isolates; conditions: Table 6-5, clinical isolate; unit assumed
Escherichia coli NIHJ = test: MIC, plate method, standard strains; conditions: Table 4, standard strain; unit assumed
Outline: (§1)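 Test compound was incorporated into Heart infusion agar at pH 7.4, plates were inoculated with 10^4 cells each (suspension at 10^6 cells/ml), and the minimum inhibitory concentration was recorded.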

[2] = system: Staphylococcus aureus 209p; test: MIC, plate method, standard strains; conditions: Table 4, standard strain; unit assumed
Outline: as §1

Proteus vulgaris 3027 = test: MIC, plate method, standard strains; conditions: Table 4, standard strain; unit assumed
Outline: as §1

Klebsiella pneumoniae [3] = test: MIC, plate method, standard strains; conditions: Table 4, standard strain; unit assumed
Outline: as §1

[4] = system: Pseudomonas aeruginosa I.F.O.; test: MIC, plate method, standard strains; conditions: Table 4, standard strain; unit assumed
Outline: as §1

Staphylococcus aureus = test: MIC against clinical isolates; conditions: Table 6-1, clinical isolate; unit assumed
Pseudomonas aeruginosa = test: MIC against clinical isolates; conditions: unit assumed; for MIC Pseudomonas aeruginosa GN / MIC Pseudomonas aeruginosa GN4 / MIC Pseudomonas aeruginosa GN 82 / MIC Pseudomonas aeruginosa GN 221 / MIC Pseudomonas aeruginosa GN 376 / MIC Pseudomonas aeruginosa GN 1035 / MIC Pseudomonas aeruginosa GN 1091 / MIC Pseudomonas aeruginosa GN 2565: Table 6-3, clinical isolate; for MIC Pseudomonas aeruginosa GN: strain number not given; for MIC Pseudomonas aeruginosa S-1: Table 6-4, clinical isolate

Structure (SMILES)	MIC Proteus mirabilis (Proteus mirabilis) [µg/mL]	MIC Proteus rettgeri (Proteus rettgeri) [µg/mL]	MIC Escherichia coli GN 3435 (Escherichia coli) [µg/mL]	MIC Escherichia coli GN 3452 (Escherichia coli) [µg/mL]	MIC Escherichia coli GN 3465 (Escherichia coli) [µg/mL]	MIC Escherichia coli K-2 (Escherichia coli) [µg/mL]	MIC Escherichia coli K-4 (Escherichia coli) [µg/mL]	MIC Klebsiella pneumoniae GN 917 (Klebsiella pneumoniae [1]) [µg/mL]	MIC Klebsiella pneumoniae GN 4081 (Klebsiella pneumoniae [1]) [µg/mL]	MIC Proteus vulgaris (Proteus vulgaris) [µg/mL]	MIC Proteus morganii (Proteus morganii) [µg/mL]	MIC Escherichia coli NIHJ (Escherichia coli NIHJ) [µg/mL]	MIC Staphylococcus aureus 209p [2] [µg/mL]	MIC Proteus vulgaris 3027 (Proteus vulgaris 3027) [µg/mL]	MIC Klebsiella pneumoniae (Klebsiella pneumoniae [3]) [µg/mL]	MIC Pseudomonas aeruginosa I.F.O. [4] [µg/mL]	MIC Staphylococcus aureus F-1 (Staphylococcus aureus) [µg/mL]	MIC Staphylococcus aureus MS 8588 (Staphylococcus aureus) [µg/mL]	MIC Staphylococcus aureus MS 8596 (Staphylococcus aureus) [µg/mL]	MIC Staphylococcus aureus MS 8619 (Staphylococcus aureus) [µg/mL]	other results
Cn1nnnc1SCC1=C(C(=O)O)N2C(=O)C(NC(=O)C(NC(=O)N3CCN(CCO)C(=O)C3=O)c3ccccc3)C2SC1 (single isomer, unassigned) [Compound No. 82]	3.13 (≈ 4.85 µM)	6.25 (≈ 9.68 µM)	1.56 (≈ 2.42 µM)	1.56 (≈ 2.42 µM)	6.25 (≈ 9.68 µM)	6.25 (≈ 9.68 µM)	1.56 (≈ 2.42 µM)	1.56 (≈ 2.42 µM)	6.25 (≈ 9.68 µM)	0.78 (≈ 1.21 µM)	1.56 (≈ 2.42 µM)	< 0.1	1.57 (≈ 2.43 µM)	0.79 (≈ 1.22 µM)	0.79 (≈ 1.22 µM)	25 (≈ 38.7 µM)	3.13 (≈ 4.85 µM)	3.13 (≈ 4.85 µM)	3.13 (≈ 4.85 µM)	1.56 (≈ 2.42 µM)	MIC Staphylococcus aureus MS 8684 (Staphylococcus aureus): 1.56 µg/mL (≈ 2.42 µM); MIC Pseudomonas aeruginosa GN (Pseudomonas aeruginosa): 50 µg/mL (≈ 77.4 µM); MIC Pseudomonas aeruginosa GN4 (Pseudomonas aeruginosa): 50 µg/mL (≈ 77.4 µM); MIC Pseudomonas aeruginosa GN 82 (Pseudomonas aeruginosa): 50 µg/mL (≈ 77.4 µM); MIC Pseudomonas aeruginosa GN 221 (Pseudomonas aeruginosa): 25 µg/mL (≈ 38.7 µM); MIC Pseudomonas aeruginosa GN 376 (Pseudomonas aeruginosa): 25 µg/mL (≈ 38.7 µM); MIC Pseudomonas aeruginosa GN 1035 (Pseudomonas aeruginosa): 50 µg/mL (≈ 77.4 µM); MIC Pseudomonas aeruginosa GN 1091 (Pseudomonas aeruginosa): 50 µg/mL (≈ 77.4 µM); MIC Pseudomonas aeruginosa GN 2565 (Pseudomonas aeruginosa): 50 µg/mL (≈ 77.4 µM); MIC Pseudomonas aeruginosa S-1 (Pseudomonas aeruginosa): 100 µg/mL (≈ 155 µM)
CCN1CCN(C(=O)NC(C(=O)NC2C(=O)N3C(C(=O)O)=C(CSc4nncs4)CSC23)c2ccc(O)cc2)C(=O)C1=O (single isomer, unassigned) [Compound No. 79]	1.56 (≈ 2.41 µM)	3.13 (≈ 4.83 µM)	0.39 (≈ 0.602 µM)	0.39 (≈ 0.602 µM)	3.13 (≈ 4.83 µM)	1.56 (≈ 2.41 µM)	0.78 (≈ 1.2 µM)	0.78 (≈ 1.2 µM)	12.5 (≈ 19.3 µM)	0.39 (≈ 0.602 µM)	1.56 (≈ 2.41 µM)	< 0.1	1.57 (≈ 2.42 µM)	3.13 (≈ 4.83 µM)	0.79 (≈ 1.22 µM)	3.13 (≈ 4.83 µM)	1.56 (≈ 2.41 µM)	3.13 (≈ 4.83 µM)	3.13 (≈ 4.83 µM)	1.56 (≈ 2.41 µM)	MIC Staphylococcus aureus MS 8684 (Staphylococcus aureus): 1.56 µg/mL (≈ 2.41 µM); MIC Pseudomonas aeruginosa GN4 (Pseudomonas aeruginosa): 12.5 µg/mL (≈ 19.3 µM); MIC Pseudomonas aeruginosa GN 82 (Pseudomonas aeruginosa): 12.5 µg/mL (≈ 19.3 µM); MIC Pseudomonas aeruginosa GN 221 (Pseudomonas aeruginosa): 6.25 µg/mL (≈ 9.65 µM); MIC Pseudomonas aeruginosa GN 376 (Pseudomonas aeruginosa): 6.25 µg/mL (≈ 9.65 µM); MIC Pseudomonas aeruginosa GN 1035 (Pseudomonas aeruginosa): 25 µg/mL (≈ 38.6 µM); MIC Pseudomonas aeruginosa GN 1091 (Pseudomonas aeruginosa): 12.5 µg/mL (≈ 19.3 µM); MIC Pseudomonas aeruginosa GN 2565 (Pseudomonas aeruginosa): 25 µg/mL (≈ 38.6 µM); MIC Pseudomonas aeruginosa S-1 (Pseudomonas aeruginosa): 25 µg/mL (≈ 38.6 µM)
CCN1CCN(C(=O)NC(C(=O)NC2C(=O)N3C(C(=O)O)=C(CSc4nnnn4CC)CSC23)c2ccccc2)C(=O)C1=O (single isomer, unassigned) [Compound No. 77]	1.56 (≈ 2.42 µM)	1.56 (≈ 2.42 µM)	1.56 (≈ 2.42 µM)	1.56 (≈ 2.42 µM)	6.25 (≈ 9.71 µM)	3.13 (≈ 4.86 µM)	1.56 (≈ 2.42 µM)	1.56 (≈ 2.42 µM)	3.13 (≈ 4.86 µM)	0.78 (≈ 1.21 µM)	1.56 (≈ 2.42 µM)	< 0.1	1.57 (≈ 2.44 µM)	1.57 (≈ 2.44 µM)	0.4 (≈ 0.621 µM)	25 (≈ 38.8 µM)	1.56 (≈ 2.42 µM)	1.56 (≈ 2.42 µM)	1.56 (≈ 2.42 µM)	1.56 (≈ 2.42 µM)	MIC Staphylococcus aureus MS 8684 (Staphylococcus aureus): 1.56 µg/mL (≈ 2.42 µM); MIC Pseudomonas aeruginosa GN (Pseudomonas aeruginosa): 25 µg/mL (≈ 38.8 µM); MIC Pseudomonas aeruginosa GN4 (Pseudomonas aeruginosa): 25 µg/mL (≈ 38.8 µM); MIC Pseudomonas aeruginosa GN 82 (Pseudomonas aeruginosa): 25 µg/mL (≈ 38.8 µM); MIC Pseudomonas aeruginosa GN 221 (Pseudomonas aeruginosa): 12.5 µg/mL (≈ 19.4 µM); MIC Pseudomonas aeruginosa GN 376 (Pseudomonas aeruginosa): 25 µg/mL (≈ 38.8 µM); MIC Pseudomonas aeruginosa GN 1035 (Pseudomonas aeruginosa): 50 µg/mL (≈ 77.7 µM); MIC Pseudomonas aeruginosa GN 1091 (Pseudomonas aeruginosa): 25 µg/mL (≈ 38.8 µM); MIC Pseudomonas aeruginosa GN 2565 (Pseudomonas aeruginosa): 50 µg/mL (≈ 77.7 µM); MIC Pseudomonas aeruginosa S-1 (Pseudomonas aeruginosa): 50 µg/mL (≈ 77.7 µM)
CCN1CCN(C(=O)NC(C(=O)NC2C(=O)N3C(C(=O)O)=C(CSc4nnnn4CC)CSC23)c2ccc(O)cc2)C(=O)C1=O (single isomer, unassigned) [Compound No. 78]	1.56 (≈ 2.36 µM)	1.56 (≈ 2.36 µM)	0.39 (≈ 0.591 µM)	0.39 (≈ 0.591 µM)	1.56 (≈ 2.36 µM)	0.78 (≈ 1.18 µM)	0.39 (≈ 0.591 µM)	0.39 (≈ 0.591 µM)	3.13 (≈ 4.74 µM)	0.39 (≈ 0.591 µM)	1.56 (≈ 2.36 µM)	< 0.1	3.13 (≈ 4.74 µM)	0.79 (≈ 1.2 µM)	0.2 (≈ 0.303 µM)	12.5 (≈ 18.9 µM)	3.13 (≈ 4.74 µM)	3.13 (≈ 4.74 µM)	3.13 (≈ 4.74 µM)	1.56 (≈ 2.36 µM)	MIC Staphylococcus aureus MS 8684 (Staphylococcus aureus): 1.56 µg/mL (≈ 2.36 µM); MIC Pseudomonas aeruginosa GN (Pseudomonas aeruginosa): 12.5 µg/mL (≈ 18.9 µM); MIC Pseudomonas aeruginosa GN4 (Pseudomonas aeruginosa): 25 µg/mL (≈ 37.9 µM); MIC Pseudomonas aeruginosa GN 82 (Pseudomonas aeruginosa): 12.5 µg/mL (≈ 18.9 µM); MIC Pseudomonas aeruginosa GN 221 (Pseudomonas aeruginosa): 6.25 µg/mL (≈ 9.47 µM); MIC Pseudomonas aeruginosa GN 376 (Pseudomonas aeruginosa): 12.5 µg/mL (≈ 18.9 µM); MIC Pseudomonas aeruginosa GN 1035 (Pseudomonas aeruginosa): 25 µg/mL (≈ 37.9 µM); MIC Pseudomonas aeruginosa GN 1091 (Pseudomonas aeruginosa): 25 µg/mL (≈ 37.9 µM); MIC Pseudomonas aeruginosa GN 2565 (Pseudomonas aeruginosa): 12.5 µg/mL (≈ 18.9 µM); MIC Pseudomonas aeruginosa S-1 (Pseudomonas aeruginosa): 25 µg/mL (≈ 37.9 µM)
